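48-hour exposure; five concentrations; linearly interpolated endpoints. At the GI50, growth is halved.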 Active and inactive are the calls of the source. No stated cut-off is given here; in the data, active = GI50 up to about 1.1 µM and inactive = higher.
Legend:
Assay in all cases: NCI-60 cell line screen, 48 h
NCI-H23 = system: NCI-H23
NCI-H226 = system: NCI-H226
A498 = system: A498
DMS-114 = system: DMS-114
OVCAR-4 = system: OVCAR-4
A549 = system: A549
XF498 = system: XF498
HOP-62 = system: HOP-62
UO-31 = system: UO-31
SK-MEL-2 = system: SK-MEL-2
UACC-62 = system: UACC-62
ACHN = system: ACHN
CAKI-1 = system: CAKI-1
SR = system: SR
IGROV-1 = system: IGROV-1
BT-549 = system: BT-549
OVCAR-3 = system: OVCAR-3
HT-29 = system: HT-29
COLO 205 = system: COLO 205
OVCAR-5 = system: OVCAR-5
SF-295 = system: SF-295
HL-60 = system: HL-60
T47D = system: T47D
TK-10 = system: TK-10
HCC 2998 = system: HCC 2998
SK-OV-3 = system: SK-OV-3
SK-MEL-5 = system: SK-MEL-5
NCI-H460 = system: NCI-H460
KM12 = system: KM12
MDA-MB-435 = system: MDA-MB-435
M19-MEL = system: M19-MEL
M14 = system: M14
UACC-257 = system: UACC-257
SK-MEL-28 = system: SK-MEL-28
SN12C = system: SN12C
HCT-116 = system: HCT-116
PC-3 = system: PC-3
SNB-75 = system: SNB-75
SF-268 = system: SF-268
HOP-92 = system: HOP-92
OVCAR-8 = system: OVCAR-8
NCI-H522 = system: NCI-H522
RPMI-8226 = system: RPMI-8226
DMS-273 = system: DMS-273
MCF7 = system: MCF7
LOX IMVI = system: LOX IMVI
K562 = system: K562
MDA-N = system: MDA-N
SNB-19 = system: SNB-19
SW-620 = system: SW-620
MOLT-4 = system: MOLT-4
RXF 393 = system: RXF 393
DLD-1 = system: DLD-1
SF-539 = system: SF-539
DU-145 = system: DU-145
U-251 = system: U-251
Malme-3M = system: Malme-3M
EKVX = system: EKVX
CCRF-CEM = system: CCRF-CEM
HOP-18 = system: HOP-18
HCT-15 = system: HCT-15
KM-20L2 = system: KM-20L2
LXFL 529 = system: LXFL 529
786-0 = system: 786-0

In the case of `Cc1c2cc[n+](C)cc2c(C)c2c1[nH]c1ccccc12`, the GI50 (NCI-H23) was 0.773 µM (active), the GI50 (NCI-H226) was 312 nM (active) and the GI50 (A498) was 2.39 µM (inactive). The GI50 (DMS-114) was 0.315 µM (active), the GI50 (OVCAR-4) was 2.03 µM (inactive) and the GI50 (A549) was 0.249 µM (active). For the same compound, the GI50 (XF498) was 0.608 µM (active), the GI50 (HOP-62) was 0.45 µM (active) and the GI50 (UO-31) was 8.65 µM (inactive). For the same compound, the GI50 (SK-MEL-2) was 1.28 µM (inactive), the GI50 (UACC-62) was 5.18 µM (inactive) and the GI50 (ACHN) was 12.8 µM (inactive). The GI50 (CAKI-1) was 2.69 µM (inactive), the GI50 (SR) was 0.497 µM (active) and the GI50 (IGROV-1) was 3.79 µM (inactive). For the same compound, the GI50 (BT-549) was 2.38 µM (inactive), the GI50 (OVCAR-3) was 3.06 µM (inactive) and the GI50 (HT-29) was 5.66 µM (inactive). For the same compound, the GI50 (COLO 205) was 0.538 µM (active), the GI50 (OVCAR-5) was 10.2 µM (inactive) and the GI50 (SF-295) was 0.237 µM (active). For the same compound, the GI50 (HL-60) was 8.69 µM (inactive), the GI50 (T47D) was 157 nM (active) and the GI50 (TK-10) was 27.2 µM (inactive). The GI50 (HCC 2998) was 2.28 µM (inactive), the GI50 (SK-OV-3) was 4.88 µM (inactive) and the GI50 (SK-MEL-5) was 1.28 µM (inactive). For the same compound, the GI50 (NCI-H460) was 1.89 µM (inactive), the GI50 (KM12) was 429 nM (active) and the GI50 (MDA-MB-435) was 9.02 µM (inactive). For the same compound, the GI50 (M19-MEL) was 0.718 µM (active), the GI50 (M14) was 7.45 µM (inactive) and the GI50 (UACC-257) was 6.41 µM (inactive). For the same compound, the GI50 (SK-MEL-28) was 1.62 µM (inactive), the GI50 (SN12C) was 0.172 µM (active) and the GI50 (HCT-116) was 3.76 µM (inactive). For the same compound, the GI50 (PC-3) was 4.83 µM (inactive), the GI50 (SNB-75) was 184 nM (active) and the GI50 (SF-268) was 0.467 µM (active). The GI50 (HOP-92) was 1.56 µM (inactive), the GI50 (OVCAR-8) was 0.368 µM (active) and the GI50 (NCI-H522) was 0.774 µM (active). The GI50 (RPMI-8226) was 8.02 µM (inactive), the GI50 (DMS-273) was 1.64 µM (inactive) and the GI50 (MCF7) was 2.44 µM (inactive). For the same compound, the GI50 (LOX IMVI) was 6.59 µM (inactive), the GI50 (K562) was 3.05 µM (inactive) and the GI50 (MDA-N) was 1.92 µM (inactive). For the same compound, the GI50 (SNB-19) was 0.301 µM (active), the GI50 (SW-620) was 0.973 µM (active) and the GI50 (MOLT-4) was 0.861 µM (active). The GI50 (RXF 393) was 1.7 µM (inactive), the GI50 (DLD-1) was 1.65 µM (inactive) and the GI50 (SF-539) was 505 nM (active). For the same compound, the GI50 (DU-145) was 520 nM (active), the GI50 (U-251) was 0.421 µM (active) and the GI50 (Malme-3M) was 0.953 µM (active). The GI50 (EKVX) was 0.834 µM (active), the GI50 (CCRF-CEM) was 2.25 µM (inactive) and the GI50 (HOP-18) was 2.91 µM (inactive).
With `CC(=O)OCC1OC(n2c(=O)[nH]c(=O)c3nn[nH]c32)C(OC(C)=O)C(OC(C)=O)C1OC(C)=O` (stereo not drawn) the GI50 (NCI-H23) was > 100 µM (inactive), the GI50 (A498) was > 100 µM (inactive) and the GI50 (DMS-114) was > 100 µM (inactive). For the same compound, the GI50 (OVCAR-4) was 66.5 µM (inactive), the GI50 (HCT-15) was > 100 µM and the GI50 (A549) was > 100 µM (inactive). The GI50 (XF498) was > 100 µM (inactive), the GI50 (HOP-62) was > 100 µM (inactive) and the GI50 (KM-20L2) was > 100 µM (inactive). For the same compound, the GI50 (UO-31) was > 100 µM (inactive), the GI50 (LXFL 529) was > 100 µM (inactive) and the GI50 (SK-MEL-2) was > 100 µM (inactive). For the same compound, the GI50 (UACC-62) was > 100 µM (inactive), the GI50 (ACHN) was > 100 µM (inactive) and the GI50 (CAKI-1) was > 100 µM (inactive). The GI50 (SR) was > 100 µM (inactive), the GI50 (IGROV-1) was > 100 µM (inactive) and the GI50 (HT-29) was > 100 µM (inactive). The GI50 (COLO 205) was > 100 µM (inactive), the GI50 (OVCAR-5) was > 100 µM (inactive) and the GI50 (SF-295) was > 100 µM (inactive). For the same compound, the GI50 (HL-60) was > 100 µM (inactive), the GI50 (TK-10) was > 100 µM (inactive) and the GI50 (HCC 2998) was > 100 µM (inactive). For the same compound, the GI50 (SK-OV-3) was > 100 µM (inactive), the GI50 (SK-MEL-5) was > 100 µM (inactive) and the GI50 (NCI-H460) was > 100 µM (inactive). For the same compound, the GI50 (M19-MEL) was > 100 µM (inactive), the GI50 (M14) was > 100 µM (inactive) and the GI50 (UACC-257) was > 100 µM (inactive). For the same compound, the GI50 (SK-MEL-28) was > 100 µM (inactive), the GI50 (SN12C) was > 100 µM (inactive) and the GI50 (HCT-116) was > 100 µM (inactive). For the same compound, the GI50 (SNB-75) was 2630 nM (inactive), the GI50 (SF-268) was > 100 µM (inactive) and the GI50 (HOP-92) was > 100 µM (inactive). The GI50 (OVCAR-8) was > 100 µM (inactive), the GI50 (NCI-H522) was > 100 µM (inactive) and the GI50 (RPMI-8226) was > 100 µM (inactive). The GI50 (DMS-273) was > 100 µM (inactive), the GI50 (LOX IMVI) was > 100 µM (inactive) and the GI50 (K562) was > 100 µM (inactive). For the same compound, the GI50 (786-0) was > 100 µM (inactive), the GI50 (SNB-19) was > 100 µM (inactive) and the GI50 (SW-620) was > 100 µM (inactive). The GI50 (MOLT-4) was > 100 µM (inactive), the GI50 (RXF 393) was > 100 µM (inactive) and the GI50 (DLD-1) was > 100 µM (inactive). For the same compound, the GI50 (U-251) was > 100 µM (inactive), the GI50 (Malme-3M) was > 100 µM (inactive) and the GI50 (EKVX) was > 100 µM (inactive). For the same compound, the GI50 (CCRF-CEM) was > 100 µM (inactive) and the GI50 (HOP-18) was 76.7 µM (inactive).

— ChEMBL document CHEMBL1201862, “PubChem BioAssay data set” (2004)
